Laboratory results published in ChEMBL document CHEMBL3352228 (J Med Chem, 2014).

Test system: not listed separately
Assay: in vitro
Settings: pig, LLC-PK1

| Structure (SMILES) | Papp at 2 h |
| --- | --- |
| CC(C)(C)COc1cnc2c(c1)[C@]1(COC(N)=N1)c1cc(-c3cncnc3)ccc1O2 | 16 ×10⁻⁶ cm/s |
| CC(C)(C)COc1cnc2c(c1)[C@]1(COC(N)=N1)c1cc(-c3cccnc3)ccc1O2 | 11 ×10⁻⁶ cm/s |
| CC(C)(C)COc1cnc2c(c1)[C@]1(COC(N)=N1)c1cc(-c3cccnc3F)ccc1O2 | 14 ×10⁻⁶ cm/s |
| CC(C)(C)COc1ccc2c(c1)[C@]1(COC(N)=N1)c1cc(-c3cncnc3)cnc1O2 | 16 ×10⁻⁶ cm/s |
| COC(C)(C)COc1cnc2c(c1)[C@]1(COC(N)=N1)c1cc(-c3cccnc3F)ccc1O2 | 16 ×10⁻⁶ cm/s |
| Cc1ccc(-c2cnc3c(c2)[C@]2(COC(N)=N2)c2cc(-c4cccnc4F)ccc2O3)cc1 | 14 ×10⁻⁶ cm/s |
| N#Cc1ccc(-c2cnc3c(c2)[C@]2(COC(N)=N2)c2cc(-c4cccnc4F)ccc2O3)cc1 | 16 ×10⁻⁶ cm/s |
| NC1=N[C@@]2(CO1)c1cc(-c3cccnc3F)ccc1Oc1ncc(-c3ccnc(F)c3)cc12 | 15 ×10⁻⁶ cm/s |
| CC(C)(C)C#Cc1cnc2c(c1)[C@]1(COC(N)=N1)c1cc(-c3cccnc3F)ccc1O2 | 9.5 ×10⁻⁶ cm/s |
| COC(C)(C)C#Cc1cnc2c(c1)[C@]1(COC(N)=N1)c1cc(-c3cccnc3F)ccc1O2 | 12 ×10⁻⁶ cm/s |

The next lines start with the values.

| Papp at 2 h | Structure (SMILES) |
| --- | --- |
| 20 ×10⁻⁶ cm/s | NC1=N[C@@]2(CO1)c1cc(-c3cccnc3F)ccc1Oc1ncc(C3=CCOCC3)cc12 |
| 11 ×10⁻⁶ cm/s | NC1=N[C@@]2(CO1)c1cc(-c3cccnc3F)ccc1Oc1ncc(C3=CCCOC3)cc12 |
| 15 ×10⁻⁶ cm/s | NC1=N[C@@]2(CO1)c1cc(-c3cccnc3F)ccc1Oc1ncc(C3CCOCC3)cc12 |
| 17 ×10⁻⁶ cm/s | CC1(C)C=C(c2cnc3c(c2)[C@]2(COC(N)=N2)c2cc(-c4cccnc4F)ccc2O3)CCO1 |
| 10 ×10⁻⁶ cm/s | NC1=N[C@@]2(CO1)c1cc(-c3cccnc3F)ccc1Oc1ncc(N3CCOCC3)cc12 |
| 11 ×10⁻⁶ cm/s | CC(C)(O)C#Cc1cnc2c(c1)[C@]1(COC(N)=N1)c1cc(-c3cccnc3F)ccc1O2 |

Test system: Plasma
Assay: not given
Settings: rat, in vivo, po, 10 mg/kg, 4 h

| Structure (SMILES) | Cp(f) |
| --- | --- |
| CC1(C)C=C(c2cnc3c(c2)[C@]2(COC(N)=N2)c2cc(-c4cccnc4F)ccc2O3)CCO1 | 45 nM |

Test system: not listed separately
Assay: in vivo
Settings: Sprague-Dawley, rat, CSF, po, 10 mg/kg

| Structure (SMILES) | concentration at 4 h |
| --- | --- |
| CC1(C)C=C(c2cnc3c(c2)[C@]2(COC(N)=N2)c2cc(-c4cccnc4F)ccc2O3)CCO1 | 5 nM |

Test system: not listed separately
Assay: in vivo
Settings: Sprague-Dawley, rat, plasma, po, 10 mg/kg

| Structure (SMILES) | concentration at 4 h |
| --- | --- |
| CC1(C)C=C(c2cnc3c(c2)[C@]2(COC(N)=N2)c2cc(-c4cccnc4F)ccc2O3)CCO1 | 1010 nM |
